US8889672B2, “Compounds, formulations, and methods of protein kinase C inhibition” (The Regents of The University of Michigan, priority 2011, dated 2014)
Where two headings read alike, the source gives them in different places. Each block holds one compound with its values, some of them ahead of it.

How the values were obtained:
[1] = molecular target: T1, aPKCζ (Homo sapiens (Human), UniProt Q05513); test: Kinase-Glo end-point assay, IC50 against aPKCζ; settings: 125 ng/ml aPKCζ, 25 μM CREBtide, 0.1 μM ATP
[2] = molecular target: T1, aPKCζ; test: ADP Quest assay, IC50 against aPKCζ; settings: 500 ng/ml aPKCζ, 10 μM CREBtide, 10 μM ATP
[3] = system: HEK293pNF-kBluc cells; test: TNF-induced NF-kB activation assay (luciferase reporter); assay type: cell-based, human; settings: 3 h pre-treatment, 5 ng/mL TNF for 5 h
Method: HEK293pNF-kBluc cells (Panomics, Fremont, Calif., USA) were cultured according to the manufacturer's protocol. Cells were seeded onto 96-well plates in phenol red-free DMEM containing high glucose (Sigma) for 24 hours prior to assay. Cells were exposed to a candidate compound for three hours. Following treatment, cells were stimulated with 5 ng/ml TNF (R&D Systems) for five hours. Cells were then lysed with Bright-Glo™ luciferase reagent (Promega, Madison, Wis., USA) and luminescent values were obtained using a GloMax® instrument using standard protocol for Bright-Glo™ luciferase reagent. Values were background corrected and normalized to TNF treatment alone and represented as % NF-kB activity.
Human embryonic kidney cells containing a luciferase reporter gene for NF-kB activation (HEK293pNF-kBluc) were treated with candidate compounds described herein for three hours. The cells were then stimulated with TNF for five hours and the inhibition of NF-kB was evaluated. After pre-treatment with 100 nM of aPKC inhibitor, NF-kB activity was reduced by as much as 80%. […] Other compounds tested inhibited TNF-induced NF-kB activity, but to a lesser degree.

[4] = system: BREC monolayer; test: TNF/VEGF permeability assay; assay type: cell-based, bovine; settings: 30 min pretreatment, TNFα 1 hour then VEGF 30 min; for EC50: read-out: EC50 for inhibition of TNF/VEGF-induced endothelial permeability
Method: BREC were plated onto 0.4 μm Transwell filters (Corning Costar, Acton, Mass., USA) and grown to confluence. Following 30 minutes of pretreatment with candidate compound, cells were subjected to 5 ng/ml TNFα (R&D Systems, Minneapolis, Minn., USA) for one hour, then 50 ng/ml VEGF (R&D Systems) for 30 minutes. Following treatments, 70 kDa Rhodamine β isothiocyanate-dextran (RITC-Dextran) was added to the apical chamber, and samples were collected from the basolateral chamber at 30 minute intervals for four hours. The rate of flux of the substrate, Po, was calculated over the four-hour time course from the following formula: Po=[FL/delta(t))VA]/(FAA)
where Po is in centimeters per second; FL is basolateral fluorescence; FA is apical fluorescence; delta(t) is change in time; A is the surface area of the filter (in square centimeters); and VA is the volume of the basolateral chamber (in cubic centimeters).

[5] = system: BREC; test: LIVE/Dead cell viability; settings: 24 and 48 hours; up to 300 nM
[6] = system: AKT in endothelial cells; test: AKT, downstream mediator of PI3K signaling, in endothelial cells; assay type: cell-based
[7] = molecular target: PKCα (Homo sapiens (Human), UniProt P17252); test: Radio-labeled kinase assay at the Kmapp for ATP; assay type: biochemical
From the text: (§1) PKCldiMeO and PKCζl-diCl were screened against other PKC isoforms to determine class specificity using a radio-labeled kinase assay at the Kmapp for ATP. […] PKCζl-diCl was 5-10 fold more specific towards the atypical PKC isoforms compared to the classical PKCs (α, β) and over 10-20 fold more specific compared to the novel class (δ,ε).

[8] = molecular target: PKCε (Homo sapiens (Human), UniProt Q02156); test: Radio-labeled kinase assay at the Kmapp for ATP; assay type: biochemical
From the text: as §1

[9] = molecular target: PKCδ (Homo sapiens (Human), UniProt Q05655); test: Radio-labeled kinase assay at the Kmapp for ATP; assay type: biochemical
From the text: as §1

[10] = molecular target: PKCβ (Homo sapiens (Human), UniProt P05771); test: Radio-labeled kinase assay at the Kmapp for ATP; assay type: biochemical
From the text: as §1

[11] = Solubility in aqueous environments; assay type: physicochemical
[12] = system: PKC isoforms; test: PKC class specificity from radio-labeled kinase assay; assay type: biochemical, human
From the text: as §1

[13] = system: cPKC / Erk phosphorylation in endothelial cells; test: cPKC activity in cell culture (Erk phosphorylation, immunoblot); assay type: cell-based
Method: Cells were harvested in extraction buffer containing 100 mM NaCl, 1% Triton X-100, 0.5% Sodium Deoxycholate, 0.2% SDS, 2 mM EDTA, 10 mM HEPES (pH 7.5), 1 mM sodium orthovanadate, 10 mM sodium fluoride, 10 mM sodium pyrophosphate, 1 mM benzamadine, 1 complete protease inhibitor tablet, 10 μM LR-microcystin. Following protein extraction, Western blot utilizing the NuPAGE system (Invitrogen, Carlsbad, Calif., USA) was performed. Protein content was determined using DC protein assay (BioRad, Hercules, Calif., USA) and equal amounts of protein were loaded in 4-12% Bis-Tris gradient gels. Following electrophoresis and transferring to nitrocellulose, membranes were blocked in milk with 5% Tris-buffered saline with 0.1% Tween 20. Membranes were immunoblotted using anti-Flag (Cell Signaling, Danvers, Mass., USA), anti-HA (Cell Signaling, Danvers, Mass., USA), anti-phospho ERK1/2 (Cell Signaling, Danvers, Mass., USA), anti-total ERK1/2 (Cell Signaling, Danvers, Mass., USA), anti-phospho aPKC (Cell Signaling, Danvers, Mass., USA), total PKCζ (Santa Cruz, Santa Cruz, Calif., USA), and anti-actin (Millipore, Billerica, Mass., USA) antibodies. Primary antibodies were detected by horseradish peroxidase-conjugated anti-rabbit and chemiluminescence with ECL Advance (GE Healthcare, Piscataway, N.J., USA) or anti-mouse IgG alkaline phosphatase with ECF (GE Healthcare, Piscataway, N.J., USA).

[14] = system: 20 AGC super-family kinases; test: Screen of 20 AGC super-family kinases at 100 μM; assay type: biochemical, human
[15] = system: BREC monolayer; test: VEGF-induced retinal endothelial permeability assay (70 kDa RITC-Dextran); assay type: cell-based, bovine; settings: pretreatment 30 min, 30 or 100 nM PKCζl-diCl, 30 or 300 nM PKCl-diMeO; 50 ng/ml VEGF
Method: (§2) Primary bovine retinal endothelial cells (BREC) were isolated from fresh bovine eye tissue. Human retinal endothelial cells (HREC) were from Cell Systems (Krikland, Wash., USA). Cells were grown in MCDB-131 complete media (Sigma-Aldrich, Mo., USA) containing 10% fetal bovine serum, 10 ng/ml epidermal growth factor, 200 μg/ml Endogro (Vec Technologies, Rensselaer, N.Y., USA), 90 μg/ml heparin, antibiotics and antimycotics. For experimentation, cells were grown to confluence and serum starved for 24 hours with 100 nM hydrocortisone and treated with VEGF at 50 ng/ml where indicated. All experiments were performed with cells at passage 5-8.
(§3) RECs were plated onto 0.4 μm Transwell filters (Corning Costar, Acton, Mass., USA) and grown to confluence. Following treatments, 70 kDa rhodamine β isothiocyanate-dextran (RITC-Dextran) was added to the apical chamber and samples were collected from the basolateral chamber at 30 minute intervals for 4 hours. The rate of flux of the substrate, Po, was calculated over the 4 hour time course from the following formula. Po=[FL/Δt)VA]/(FAA) where Po is in centimeters per second; FL is basolateral fluorescence; FA is apical fluorescence; Δt is change in time; A is the surface area of the filter (in square centimeters); and VA is the volume of the basolateral chamber (in cubic centimeters). […]

[16] = system: human retinal endothelial primary cells (HREC) monolayers; test: Basal permeability of HREC monolayers; assay type: cell-based
Method: as §2, §3

[17] = system: occludin and ZO-1 border staining in BREC; test: Tight junction protein localization after VEGF (immunocytochemistry, confocal); assay type: cell-based, bovine; settings: 100 nM, 30 min before 50 ng/ml VEGF for 60 min
Method: VEGF treatment of retinal endothelial cells and diabetes leads to a breakdown of the tight junction complex and internalization of tight junction proteins occludin and ZO-1. The ability of the phenyl-thiophene derivatives to prevent the VEGF-induced reduction in tight junction border staining was examined. BREC were grown to confluence on coverslips and pretreated with 100 nM PKCζ-diCl for 30 minutes prior to treatment with 50 ng/ml VEGF for 60 minutes. Cells were fixed and stained with antibodies for ZO-1 or occludin and were visualized by confocal microscopy. VEGF decreased the border staining and continuity of ZO-1 and occludin labeling at the cell border. […] This effect on the tight junction correlated with the observed attenuation of VEGF-induced permeability.

[18] = system: retinal vasculature tight junction complex (occludin); test: Occludin immuno-labeling of retinal flat mounts after intra-vitreal VEGF; settings: intra-vitreal co-injection with VEGF

T1 sequence (Q05513 whole entry): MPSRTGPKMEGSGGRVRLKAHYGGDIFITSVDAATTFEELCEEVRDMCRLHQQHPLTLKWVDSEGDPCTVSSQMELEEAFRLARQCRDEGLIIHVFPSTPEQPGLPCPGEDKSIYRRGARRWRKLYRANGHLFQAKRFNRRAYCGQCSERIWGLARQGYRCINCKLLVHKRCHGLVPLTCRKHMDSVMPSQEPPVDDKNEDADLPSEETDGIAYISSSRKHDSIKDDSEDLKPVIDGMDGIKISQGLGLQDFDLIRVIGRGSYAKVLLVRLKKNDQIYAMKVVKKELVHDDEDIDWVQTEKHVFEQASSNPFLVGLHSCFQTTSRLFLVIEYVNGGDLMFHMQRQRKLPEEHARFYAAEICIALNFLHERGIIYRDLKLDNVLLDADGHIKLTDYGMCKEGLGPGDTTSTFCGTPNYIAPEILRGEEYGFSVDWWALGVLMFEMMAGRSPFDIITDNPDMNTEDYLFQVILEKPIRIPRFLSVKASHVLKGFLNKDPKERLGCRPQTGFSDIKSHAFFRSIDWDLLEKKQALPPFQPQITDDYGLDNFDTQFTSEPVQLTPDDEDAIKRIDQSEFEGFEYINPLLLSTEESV
Sequence of PKCβ (P05771 whole entry): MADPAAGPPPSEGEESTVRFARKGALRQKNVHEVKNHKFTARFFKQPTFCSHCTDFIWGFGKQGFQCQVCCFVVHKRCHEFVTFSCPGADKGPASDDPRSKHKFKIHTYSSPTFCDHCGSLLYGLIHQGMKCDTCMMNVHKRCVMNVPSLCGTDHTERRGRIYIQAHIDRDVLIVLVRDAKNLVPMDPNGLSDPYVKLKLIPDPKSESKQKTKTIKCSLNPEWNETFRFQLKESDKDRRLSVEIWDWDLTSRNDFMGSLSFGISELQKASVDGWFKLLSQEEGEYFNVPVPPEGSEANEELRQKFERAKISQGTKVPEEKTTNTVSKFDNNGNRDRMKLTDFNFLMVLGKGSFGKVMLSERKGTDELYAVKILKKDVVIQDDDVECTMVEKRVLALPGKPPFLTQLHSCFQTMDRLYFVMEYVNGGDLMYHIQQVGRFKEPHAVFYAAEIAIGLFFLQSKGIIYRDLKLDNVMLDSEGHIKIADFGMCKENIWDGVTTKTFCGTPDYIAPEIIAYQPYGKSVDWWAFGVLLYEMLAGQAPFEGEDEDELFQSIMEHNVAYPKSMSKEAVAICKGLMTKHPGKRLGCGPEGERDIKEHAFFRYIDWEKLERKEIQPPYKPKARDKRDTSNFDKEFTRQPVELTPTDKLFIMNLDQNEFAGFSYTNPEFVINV
Sequence of PKCδ (Q05655 whole entry): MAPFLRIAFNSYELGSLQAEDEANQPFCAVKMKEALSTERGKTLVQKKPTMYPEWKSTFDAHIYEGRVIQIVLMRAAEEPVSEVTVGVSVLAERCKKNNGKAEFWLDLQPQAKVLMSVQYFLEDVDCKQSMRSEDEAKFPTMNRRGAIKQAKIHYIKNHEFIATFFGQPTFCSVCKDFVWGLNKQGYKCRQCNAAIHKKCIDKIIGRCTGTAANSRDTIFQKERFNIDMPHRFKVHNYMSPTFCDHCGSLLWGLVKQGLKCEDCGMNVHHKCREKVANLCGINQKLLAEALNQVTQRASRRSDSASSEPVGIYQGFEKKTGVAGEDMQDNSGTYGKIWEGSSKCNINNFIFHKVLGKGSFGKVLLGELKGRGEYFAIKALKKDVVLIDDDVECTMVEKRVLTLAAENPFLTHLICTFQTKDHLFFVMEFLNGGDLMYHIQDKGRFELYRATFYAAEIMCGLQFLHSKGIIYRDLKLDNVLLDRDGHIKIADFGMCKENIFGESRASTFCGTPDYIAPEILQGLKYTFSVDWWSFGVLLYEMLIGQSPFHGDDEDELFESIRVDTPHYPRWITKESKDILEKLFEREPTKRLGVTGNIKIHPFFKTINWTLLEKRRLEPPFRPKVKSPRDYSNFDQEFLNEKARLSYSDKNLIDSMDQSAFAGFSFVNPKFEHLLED
Sequence of PKCε (Q02156 whole entry): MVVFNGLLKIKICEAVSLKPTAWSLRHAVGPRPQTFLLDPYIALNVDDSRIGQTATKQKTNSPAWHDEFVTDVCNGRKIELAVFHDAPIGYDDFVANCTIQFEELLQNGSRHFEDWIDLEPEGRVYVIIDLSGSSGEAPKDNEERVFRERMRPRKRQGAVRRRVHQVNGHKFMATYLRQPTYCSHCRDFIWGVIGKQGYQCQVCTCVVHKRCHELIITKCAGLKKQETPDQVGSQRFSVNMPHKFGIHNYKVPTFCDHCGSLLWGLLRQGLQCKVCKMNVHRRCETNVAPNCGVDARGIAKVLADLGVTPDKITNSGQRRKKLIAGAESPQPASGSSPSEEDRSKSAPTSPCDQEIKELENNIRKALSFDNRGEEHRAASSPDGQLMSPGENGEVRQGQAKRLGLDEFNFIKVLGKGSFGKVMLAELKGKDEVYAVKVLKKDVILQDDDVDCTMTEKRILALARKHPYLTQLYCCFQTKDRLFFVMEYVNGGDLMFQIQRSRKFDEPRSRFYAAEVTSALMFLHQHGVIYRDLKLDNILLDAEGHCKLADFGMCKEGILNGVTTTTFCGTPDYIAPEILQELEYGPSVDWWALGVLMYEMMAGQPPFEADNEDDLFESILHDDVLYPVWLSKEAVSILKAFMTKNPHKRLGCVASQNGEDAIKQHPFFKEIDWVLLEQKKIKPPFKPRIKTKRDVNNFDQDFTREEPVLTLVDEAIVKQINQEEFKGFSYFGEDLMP

Structure (SMILES): CCOC(=O)c1c(NC(C)=O)sc(C(C)=O)c1-c1ccc(Cl)cc1 [APOGEE B]
- IC50 [1]: 71 µM

Structure (SMILES): CCNC(=O)c1c(-c2ccc(Cl)c(Cl)c2)csc1N [Compound 194-094-009]
- IC50 [2]: 5 µM

Structure (SMILES): COc1ccc(-c2csc(N)c2C#N)cc1OC [Compound 227-076-001]
- IC50 [2]: 7 µM

Structure (SMILES): COc1ccc(-c2csc(N)c2C(=O)OCc2ccccc2)cc1OC [Compound 252-036-001]
- IC50 [2]: 6 µM
- EC50 [3]: 0.001 µM

Structure (SMILES): COc1ccc(-c2csc(N)c2C(=O)OCc2ccccc2F)cc1OC [Compound 317-052-001]
- IC50 [2]: 7 µM

Structure (SMILES): COc1cccc(COC(=O)c2c(-c3ccc(OC)c(OC)c3)csc2N)c1 [Compound 317-052-004]
- IC50 [2]: 5 µM
- EC50 [3]: 0.002 µM

Structure (SMILES): CCOC(=O)c1c(-c2ccc(NC(C)=O)cc2)csc1N [Compound 317-056-002]
- IC50 [2]: 6 µM

Structure (SMILES): CCOC(=O)c1c(-c2ccc(N(C)C)cc2)csc1N [Compound 317-080-001]
- EC50 [3]: 0.001 µM

Structure (SMILES): COc1cccc(COC(=O)c2c(-c3ccc(C(N)=O)cc3)csc2N)c1 [Compound 317-120-001]
- IC50 [2]: 6 µM

Structure (SMILES): COc1ccc(-c2csc(N)c2C(=O)OC(C)C)cc1OC [PKCl-diMeO]
- BREC viability [5]: no evidence of cell death
- AKT signaling [6]: unaffected
- EC50 ([3]; Homo sapiens): 0.003 µM
- TNF/VEGF-induction of BREC permeability [4]: significantly reduce
- EC50 ([4]; Bos taurus): 0.001 µM
- IC50 [7]: 282 µM
- IC50 [8]: > 100 µM
- IC50 [9]: 147 µM
- IC50 [10]: 124 µM
- solubility in aqueous environments [11]: improved solubility in aqueous environments
- specificity towards atypical PKC isoforms compared to the classical PKCs (α, β) [12]: 25-50 fold
- specificity towards atypical PKC isoforms compared to the novel class (δ,ε) [12]: 25 fold
- cPKC activity in cell culture [13]: did not inhibit cPKC activity
- Erk phosphorylation ([13]; endothelial cells): unaffected
- inhibitory activity towards other AGC kinases [14]: limited inhibitory activity
- VEGF-induced permeability [15]: dose-dependently blocked

Structure (SMILES): CC(C)OC(=O)c1c(-c2ccc(Cl)c(Cl)c2)csc1N [PKCζl-diCl, isopropyl 2-amino-4-(3,4-dichlorophenyl)thiophene-3-carboxylate]
- basal permeability of HREC monolayers [16]: reducing permeability was also observed
- VEGF-induced redistribution of occludin and ZO-1 [17]: blocked the VEGF-induced redistribution of occludin and ZO-1 proteins
- specificity towards atypical PKC isoforms compared to the classical PKCs (α, β) [12]: 5-10 fold
- specificity towards atypical PKC isoforms compared to the novel class (δ,ε) [12]: 10-20 fold
- VEGF-induced permeability [15]: dose-dependently blocked
- occludin border staining in retinal vessels [18]: occludin border staining was preserved

More lines, in order of falling IC50 [2], values ahead:

- IC50 [2]: 5 µM
Structure (SMILES): CC(C)NC(=O)c1c(-c2ccc(Cl)c(Cl)c2)csc1N [Compound 194-094-008]

- IC50 [2]: 4 µM
Structure (SMILES): COc1ccc(-c2csc(N)c2C(=O)N2CCOCC2)cc1OC [Compound 194-074-005]

- IC50 [2]: 4 µM
Structure (SMILES): CCNC(=O)c1c(-c2ccc(OC)c(OC)c2)csc1N [Compound 194-074-008]

- IC50 [2]: 4 µM
Structure (SMILES): CCOC(=O)c1c(-c2ccc(OC)cc2F)csc1N [Compound 317-054-001]
- EC50 [3]: 0.01 µM

- IC50 [2]: 3 µM
Structure (SMILES): Nc1scc(-c2ccc(Cl)c(Cl)c2)c1C(=O)N1CCOCC1 [Compound 194-094-003]

- IC50 [2]: 2 µM
- TNF/VEGF-induction of BREC permeability [4]: significantly reduce
- EC50 [4]: 0.02 µM
Structure (SMILES): CCOC(=O)c1c(-c2ccc3c(c2)OCO3)csc1N [Compound 268-020-002]
- EC50 [3]: 0.003 µM

- IC50 [2]: 2 µM
Structure (SMILES): CCOC(=O)c1c(-c2ccc(N)cc2)csc1N [Compound 317-094-001]
- EC50 [3]: 0.001 µM
